Source: ChEMBL document CHEMBL4400517, “Marine natural products as potential anti-tubercular agents” (Eur J Med Chem, 2019)
≈ marks a conversion by molar mass, not a printed value.

Tests used:
[1] = test system: Mycobacterium tuberculosis; assay: Antimycobacterial activity against Mycobacterium tuberculosis H37Rv; type: functional, organism-based
[2] = test system: Mycobacterium tuberculosis; assay: Antimycobacterial activity against Mycobacterium tuberculosis; type: functional
Mycolicibacterium vaccae = assay: Antimycobacterial activity against Mycobacterium vaccae assessed as diameter of inhibition zone at 50 ug/disc; type: functional; conditions: read-out: IZ
[3] = test system: Mycobacterium tuberculosis; assay: Antimycobacterial activity against Mycobacterium tuberculosis H37Rv assessed as inhibition of mycobacterial growth at 12.5 ug/ml relative to control; type: functional
[4] = target: T1, Phosphotyrosine protein phosphatase (Mycobacterium tuberculosis) (UniProt A0A045ISB3); assay: Inhibition of Mycobacterium tuberculosis Protein Tyrosine Phosphatase B at 100 uM relative to control
T1 sequence (whole entry): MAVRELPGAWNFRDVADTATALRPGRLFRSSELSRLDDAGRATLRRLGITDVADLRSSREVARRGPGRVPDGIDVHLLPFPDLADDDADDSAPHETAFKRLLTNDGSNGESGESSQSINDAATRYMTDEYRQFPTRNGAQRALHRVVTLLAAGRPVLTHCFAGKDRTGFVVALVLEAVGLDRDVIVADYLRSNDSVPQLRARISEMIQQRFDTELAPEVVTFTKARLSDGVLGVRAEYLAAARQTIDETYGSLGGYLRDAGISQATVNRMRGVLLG

Mycolicibacterium phlei = assay: Antimycobacterial activity against Mycobacterium phlei assessed as diameter of inhibition zone at 20 ug/disc; type: functional; conditions: read-out: IZ
[5] = test system: Mycolicibacterium smegmatis; assay: Antibiofilm activity against Mycobacterium smegmatis after 5 weeks; type: functional
[6] = test system: Mycobacterium tuberculosis; assay: Antimycobacterial activity against Mycobacterium tuberculosis H37Ra; type: functional

CO[C@H]1/C=C/O[C@@]2(C)Oc3c(C)c(O)c4c(O)c(c(/C=N/N5CCN(C)CC5)c(O)c4c3C2=O)NC(=O)/C(C)=C\C=C\[C@H](C)[C@H](O)[C@@H](C)[C@@H](O)[C@@H](C)[C@H](OC(C)=O)[C@@H]1C [RIFAMPIN]
IC50 [1]: 550 nM

CSC1=CC2=C(C(=O)c3ccc([C@H]4C[C@@H](O)[C@H](O[C@H]5CC[C@H](O[C@H]6C[C@@H](O)[C@H](O)[C@@H](C)O6)[C@H](C)O5)[C@@H](C)O4)c(O)c3C2=O)[C@@]2(O[C@H]3CC[C@H](O)[C@H](C)O3)C(=O)C[C@](C)(O)C[C@@]12O
MIC [2]: 14 µM (≈ 12.5 µg/mL)

COC(=O)N[C@H]1[C@@H](C)O[C@@H](O[C@H]2C/C=C(\C)[C@@H]3C=C[C@@H]4[C@@H](O[C@@H]5C[C@@H](O[C@@H]6C[C@@H](O)[C@@H](O[C@H]7C[C@@H](C)[C@H](OC)[C@H](O)C7)[C@H](C)O6)[C@@H](O)[C@H](C)O5)[C@@H](C)C[C@H](C)[C@H]4[C@]3(C)C(=O)C3=C(O)[C@@]4(C[C@@H](C)C(COC(C)=O)=C[C@H]4/C=C/2C)OC3=O)C[C@]1(C)N
MIC [1]: 26.7 µM (≈ 32 µg/mL)

COC(=O)/C1=C/c2c([nH]c3ccccc23)/C(C(=O)OC)=C\c2c1[nH]c1ccccc21 [CAULERPIN]
IC50 [1]: 240 nM

CC[C@H]1/C=C/[C@@H]([C@@H](O)C=C(C)C)OC(=O)/C(C)=C\[C@@H]2C(=O)NC3=CC(=O)c4c(cc(C)c(O)c4C(=O)CC1)[C@@]32O
zone of inhibition at 50 µg/disc (Mycolicibacterium vaccae): 12 mm

O=C1CCCN2[C@@H](CC1)C[C@]13CN4CCCC/C=C\CC[C@](O)(C=C(c5nccc6c5[nH]c5c(O)cccc56)[C@@H]1CC4)[C@H]23
MIC [1]: 0.69 µM (≈ 0.401 µg/mL)

Cc1cc(O)c2c3c(ccc2c1)C(=O)c1c(ccc([C@H]2C[C@@H](O)[C@H](O)[C@@H](C)O2)c1O)C3=O
MIC [2]: 14.4 µM (≈ 6.26 µg/mL)

CC[C@H]1/C=C/[C@H](O)[C@H](C=C(C)C)OC(=O)/C(C)=C/CC(=O)Nc2cc(O)cc3c2O/C(=C\C(=O)CC1)C(C)=C3
zone of inhibition at 50 µg/disc (Mycolicibacterium vaccae): 12 mm

CC(C)=C[C@@H]1C[C@H](C)[C@H]2CC[C@H](C)c3c2c1c(C)c1ncoc31 [PSEUDOPTEROXAZOLE]
inhibition at 12.5 µg/mL [3]: 97%

COC1=CC(=O)c2c(O)c3c(c(O)c2C1=O)C[C@]1(C)OCO[C@@H]1[C@H]3O
inhibition [4]: 17.5 to 48.8%

CSC1=CC2=C(C(=O)c3ccc([C@H]4C[C@@H](O)[C@H](O)[C@@H](C)O4)c(O)c3C2=O)[C@@]2(O)C(=O)C=C(C)C[C@@]12O
MIC [2]: 24.3 µM (≈ 12.5 µg/mL)

Cc1cc(O)c2c3c(c(O)c4c(c13)O[C@@H](C)[C@]4(C)CO)C(=O)OC2=O
zone of inhibition at 20 µg/disc (Mycolicibacterium phlei): 20 mm

COc1cc(O)c2c(c1O)C(=O)c1cc(C)ccc1C2=O
inhibition [4]: 17.5 to 48.8%

CC1(C)CCC[C@]2(C)[C@H]3C(C#N)=C4C=C(O)C(=O)C=C4O[C@@]3(C)CC[C@@H]12
inhibition at 12.5 µg/mL [3]: 90%

CC[C@H]1/C=C/[C@@H]([C@@H](O)C=C(C)C)OC(=O)/C(C)=C\CC(=O)Nc2cc(O)cc3c2O[C@@]2(CC1)CC(=O)[C@@H](C)[C@@H]3O2
zone of inhibition at 50 µg/disc (Mycolicibacterium vaccae): 19 mm

CSC1=CC2=C(C(=O)c3ccc([C@H]4C[C@@H](O)[C@H](O)[C@@H](C)O4)c(O)c3C2=O)[C@@]2(O)C(=O)C[C@](C)(O)C[C@@]12O
MIC [2]: 5.88 µM (≈ 3.13 µg/mL)

COC1=CC(=O)c2c(O)c3c(c(O)c2C1=O)C[C@](C)(O)[C@H](O)[C@H]3O
inhibition [4]: 37%

CCCCCCSC1=C(SCCCCCC)C(=O)c2c(O)c3c(c(O)c2C1=O)C[C@](C)(O)[C@H](O)[C@H]3O
inhibition [4]: 56.2%

O[C@]12C=C(c3nccc4c3[nH]c3ccccc34)[C@@H]3CCN(CCCC/C=C\CC1)C[C@@]31C[C@@H]3/C=C\CCCCN3[C@H]12 [MANZAMINE A]
MIC [1]: 1.64 µM (≈ 0.9 µg/mL)

CC(C)=C/C=C\[C@H](C)[C@H]1CC[C@]2(C)C[C@@H]3C(C)=CC(=O)[C@H]3/C(C=O)=C\C[C@@H]12
MIC [5]: 17 µM (≈ 6.23 µg/mL)

C1=C\CCCC[C@@H]2CN3CCCC/C=C\CCCC[C@H]4C[C@H](CN(CCCCCC/1)C4)[C@H]2CC3 (relative stereo)
MIC [6]: 2.14 µM (≈ 1 µg/mL)

CC(=O)O[C@H]1C[C@@]2(C)[C@@H](CC[C@H]3[C@@]4(C)C=CC(=O)[C@@H](C)C4[C@H](OC(C)=O)C(=O)[C@@]32C)/C1=C(\CCC=C(C)C)C(=O)O (some centres undefined)
MIC [1]: 0.89 µM (≈ 0.506 µg/mL)

CNC1=CC(=O)c2c(O)c3c(c(O)c2C1=O)C[C@](C)(O)[C@H](O)[C@H]3O
inhibition [4]: 17.5 to 48.8%

CC1(C)CCC[C@]2(C)[C@H]3C=C4C=C(O)C(=O)C=C4O[C@@]3(C)CC[C@@H]12 [PUUPEHENONE]
inhibition at 12.5 µg/mL [3]: 99%

O=C1CCCN2[C@@H](CC1)C[C@]13CN4CCCC/C=C\CC[C@](O)(C=C(c5nccc6c5[nH]c5ccccc56)[C@@H]1CC4)[C@H]23
MIC [1]: 6.74 µM (≈ 3.81 µg/mL)

C1=C\CCCCN2C[C@H]3CCCC/C=C\CCCCN4CC[C@@H]([C@H](CCCCCC/1)C4)[C@H](C3)C2 (relative stereo)
MIC [6]: 5.34 µM (≈ 2.5 µg/mL)

COC1=C(Br)C(O)[C@@]2(C=C1Br)CC(C(=O)NCCCCNC(=O)C1=NO[C@]3(C=C(Br)C(OC)=C(Br)C3O)C1)=NO2 (some centres undefined)
MIC [2]: 7.99 µM (≈ 6.54 µg/mL)

COC(=O)N[C@H]1[C@@H](C)O[C@@H](O[C@H]2C/C=C(\C)[C@@H]3C=C[C@@H]4[C@@H](O[C@@H]5C[C@@H](O[C@@H]6C[C@@H](O)[C@@H](O[C@H]7C[C@@H](C)[C@H](OC)[C@H](O)C7)[C@H](C)O6)[C@@H](O)[C@H](C)O5)[C@@H](C)C[C@H](C)[C@H]4[C@]3(C)C(=O)C3=C(O)[C@@]4(C[C@@H](C)C(CO)=C[C@H]4/C=C/2C)OC3=O)C[C@]1(C)N
MIC [1]: 27.7 µM (≈ 32 µg/mL)

O=C1CCCN2[C@@H](CC1)C[C@]13CN4CCCC/C=C\CC[C@](O)(C=C(c5nccc6c5[nH]c5ccc(O)cc56)[C@@H]1CC4)[C@H]23
MIC [1]: 52.1 µM (≈ 30.2 µg/mL)

CCCNC1=CC(=O)c2c(O)c3c(c(O)c2C1=O)C[C@](C)(O)[C@H](O)[C@H]3O
inhibition [4]: 17.5 to 48.8%

CC(C)=C/C=C\[C@H](C)[C@H]1CC[C@]2(C)C[C@H]3[C@H](C(=O)C[C@@]3(C)O)/C(C=O)=C\C[C@@H]12
MIC [5]: 4.1 µM (≈ 1.58 µg/mL)

O=CC1=C[C@@]2(O)CC/C=C\CCCCN3CC[C@@H]1[C@]1(C[C@@H]4/C=C\CCCCN4[C@H]12)C3 [IRCINAL]
MIC [1]: 73.7 µM (≈ 30.2 µg/mL)

C=C(CC[C@@H](C)[C@H]1CC[C@H]2[C@@H]3CC=C4C[C@@H](O)CC[C@]4(C)[C@H]3CC[C@]12C)C(C)C
MIC [1]: 302 µM (≈ 120 µg/mL)

COC1=CC(=O)c2c(O)c3c(c(O)c2C1=O)C[C@]1(C)OC(=O)O[C@@H]1[C@H]3O
inhibition [4]: 17.5 to 48.8%

CC[C@H]1/C=C/[C@H](O)[C@H](C=C(C)C)OC(=O)[C@@]2(C)C=CC(=O)Nc3c2c(O)c2c(c(O)c(C)cc2c3O)C(=O)CC1
zone of inhibition at 50 µg/disc (Mycolicibacterium vaccae): 11 mm

COC(=O)N[C@H]1[C@@H](C)O[C@@H](O[C@H]2C/C=C(\C)[C@@H]3C=C[C@@H]4[C@@H](O[C@@H]5C[C@@H](O[C@@H]6C[C@@H](O)[C@@H](O[C@H]7C[C@@H](C)[C@H](OC)[C@H](O)C7)[C@H](C)O6)[C@@H](O)[C@H](C)O5)[C@@H](C)C[C@H](C)[C@H]4[C@]3(C)C(=O)C3=C(O)[C@@]4(C[C@@H](C)C(CO)=C[C@H]4/C=C/2C)OC3=O)C[C@]1(C)[N+](=O)[O-]
MIC [1]: 13.5 µM (≈ 16 µg/mL)

C=C(CC[C@@H](C)[C@H]1CC[C@H]2[C@@H]3C(C=O)=C4C[C@@H](O)CC[C@]4(C)[C@H]3CC[C@]12C)C(C)C [PARGUESTEROL A]
MIC [1]: 18.9 µM (≈ 7.81 µg/mL)

COC1=CC(=O)c2c(O)c3c(c(O)c2C1=O)C[C@]1(C)OC(C=C(C)C)O[C@@H]1[C@H]3O (some centres undefined)
inhibition [4]: 17.5 to 48.8%

COC(=O)c1c(C)cc2c(c1O)[C@@]1(O)C(=O)c3cc4c(c(O)c3C(=O)[C@@]1(OC)CC2)C(=O)C=C(N[C@H]1O[C@@H](C)[C@H](O)[C@@H](O)[C@H]1OC)C4=O
MIC [2]: 1.5 µM (≈ 1 µg/mL)

CC(C)=C/C=C\[C@H](C)[C@H]1CC[C@]2(C)C[C@H]3[C@@H](C(=O)C[C@@]3(C)O)/C(C=O)=C\C[C@@H]12
MIC [5]: 65 µM (≈ 25 µg/mL)

COc1cc(O)c2c(c1O)C(=O)C1=C(C[C@@H](O)[C@@](C)(O)C1)C2=O
inhibition [4]: 17.5 to 48.8%

C=C(CC[C@@H](C)[C@H]1CC[C@H]2[C@@H]3[C@@H](C=O)[C@]4(O)C[C@@H](O)CC[C@]4(C)[C@H]3CC[C@]12C)C(C)C
MIC [1]: 26.1 µM (≈ 11.2 µg/mL)

CC1(C)CCC[C@]2(C)[C@H]3[C@H](C#N)c4cc(O)c(O)cc4O[C@@]3(C)CC[C@@H]12
inhibition at 12.5 µg/mL [3]: 96%

COC1=CC(=O)c2c(O)c3c(c(O)c2C1=O)C[C@]1(C)OC(C)(C)O[C@@H]1[C@H]3O
inhibition [4]: 17.5 to 48.8%

CNC1=CC(=O)c2c(O)c3c(c(O)c2C1=O)C[C@](C)(O)[C@H](O)C3
inhibition [4]: 9.7%

CC(C)=CCC[C@H](C)[C@H]1CC[C@@H](C)c2c1ccc1ncoc21
inhibition at 12.5 µg/mL [3]: 66%

CC(=O)O[C@H]1C[C@H]2[C@]3(C)CC[C@H]4C(C)(C)CCC[C@]4(C)[C@H]3C[C@@H](O)[C@]2(C)[C@@H]2C1=CC[C@H]2OC(C)=O
IC50 [1]: 2670 nM | MIC [1]: 12.8 µM (≈ 6.23 µg/mL)

COC1=CC(=O)c2c(cc3c(c2O)C[C@@H](O)[C@@](C)(O)C3)C1=O
inhibition [4]: 17.5 to 48.8%
